Laboratory results reported in US20070134261A1, “Effectors of innate immunity” (priority 2001, published 2007).
Values joined by “and” are separate entries in the source; they are usually repeats but may differ in a detail not shown here. Equal entries are not always repeated.

Test system: human A549 epithelial cells
Test: Resgen Human cDNA arrays (PRHU03-S3) of A549 cells treated with peptide (Tables 21-26)
Conditions: 50 μg/ml, 4 h

CC[C@H](C)[C@H](N)C(=O)N[C@@H](CC(C)C)C(=O)N1CCC[C@H]1C(=O)N[C@@H](Cc1c[nH]c2ccccc12)C(=O)N[C@@H](CCCCN)C(=O)N[C@@H](Cc1c[nH]c2ccccc12)C(=O)N1CCC[C@H]1C(=O)N[C@@H](Cc1c[nH]c2ccccc12)C(=O)N[C@@H](Cc1c[nH]c2ccccc12)C(=O)N1CCC[C@H]1C(=O)N[C@@H](Cc1c[nH]c2ccccc12)C(=O)N[C@@H](CCCNC(=N)N)C(=O)N[C@@H](CCCNC(=N)N)C(N)=O [SEQ ID NO: 2]
Ratio Peptide:Unstimulated, catenin (cadherin-associated protein), delta 1 (AA025276): 1.2 | Ratio Peptide:Unstimulated, integrin, beta 3 (AA037229): 2.7 | Ratio Peptide:Unstimulated, Epstein-Barr virus induced polynucleotide 2 (AA037376): 1.6 | Ratio Peptide:Unstimulated, disintegrin and metalloproteinase domain 10 (AA043347): 1.5 | Ratio Peptide:Unstimulated, MAP kinase kinase kinase kinase 3 (AA043537): 0.45 | Ratio Peptide:Unstimulated, protein tyrosine phosphatase, receptor type, J (AA045326): 3.6 | Ratio Peptide:Unstimulated, MAP kinase kinase kinase 12 (AA053674): 0.20 | Ratio Peptide:Unstimulated, integrin, alpha 7 (AA055979): 0.57 | Ratio Peptide:Unstimulated, leukocyte immunoglobulin-like receptor, subfamily B (with TM and ITIM domains), member 4 (AA076350): 0.75 | Ratio Peptide:Unstimulated, phospholipase A2 receptor 1 (AA086038): 2.8 | Ratio Peptide:Unstimulated, IL-8 (AA102526): 3.6 | Ratio Peptide:Unstimulated, cadherin 11, type 2, OB-cadherin (osteoblast) (AA136983): 0.23 | Ratio Peptide:Unstimulated, TNF R superfamily, member 1B (AA150416, listed as ID 2): 18 and 17.09 | Ratio Peptide:Unstimulated, MAP kinase 9 (AA157286): 0.57 | Ratio Peptide:Unstimulated, macrophage stimulating 1 R (AA173454): 1.7 | Ratio Peptide:Unstimulated, killer cell lectin-like receptor subfamily C, member 2 (AA190627): 9.7 | Ratio Peptide:Unstimulated, TNF R superfamily, member 11b (AA194983, listed as ID 2): 5.3 and 5.29 | Ratio Peptide:Unstimulated, disintegrin and metalloproteinase domain 8 (AA279188): 3.1 | Ratio Peptide:Unstimulated, BCL2-interacting killer (apoptosis-inducing) (AA291323): 1.9 | Ratio Peptide:Unstimulated, disintegrin-like and metalloprotease with thrombosondin type 1 motif, 3 (AA398492): 0.32 | Ratio Peptide:Unstimulated, MAP kinase kinase kinase 4 (AA402447): 0.37 | Ratio Peptide:Unstimulated, prostaglandin E receptor 3 (subtype EP3) (AA406362): 4.1 | Ratio Peptide:Unstimulated, MAP kinase kinase kinase kinase 4 (AA417711): 0.96 | Ratio Peptide:Unstimulated, MAP kinase 8 interacting protein 2 (AA418293): 0.07 | Ratio Peptide:Unstimulated, integrin, alpha 3 (antigen CD49C, alpha 3 subunit of VLA-3 receptor) (AA424695): 0.8 | Ratio Peptide:Unstimulated, cadherin 3, type 1, P-cadherin (placental) (AA425217): 0.43 | Ratio Peptide:Unstimulated, integrin, alpha E (AA425451): 180 | Ratio Peptide:Unstimulated, formyl peptide receptor 1 (AA425767): 3.1 | Ratio Peptide:Unstimulated, MAP kinase kinase 2 (AA425826): 1.20 | Ratio Peptide:Unstimulated, cytokine inducible SH2-containing protein (AA427521): 33 | Ratio Peptide:Unstimulated, integrin, beta 5 (AA434397): 0.32 | Ratio Peptide:Unstimulated, protein tyrosine phosphatase, non-receptor type 9 (AA434420): 3.5 | Ratio Peptide:Unstimulated, protein tyrosine phosphatase, non-receptor type 12 (AA446259): 2.3 | Ratio Peptide:Unstimulated, caspase 8, apoptosis-related cysteine protease (AA448468): 2.2 | Ratio Peptide:Unstimulated, growth factor receptor-bound protein 2 (AA449831): 2.2 | Ratio Peptide:Unstimulated, endothelin receptor type A (AA450009): 12 | Ratio Peptide:Unstimulated, integrin, alpha 1 (AA450324): 0.41 | Ratio Peptide:Unstimulated, Human proteinase activated R-2 (AA454652): 6.1 | Ratio Peptide:Unstimulated, IL-11 R alpha (AA454657): 2.4 | Ratio Peptide:Unstimulated, CSF 3 R (AA458507): 1.9 | Ratio Peptide:Unstimulated, integrin, alpha 10 (AA460959): 0.33 | Ratio Peptide:Unstimulated, MAP kinase kinase kinase 7 (AA460969): 0.97 | Ratio Peptide:Unstimulated, NK cell R (AA463248): 2.5 | Ratio Peptide:Unstimulated, integrin, alpha 2 (CD49B, alpha 2 subunit of VLA-2 receptor) (AA463257): 0.9 | Ratio Peptide:Unstimulated, IL-1 receptor, type I (AA464526): 0.34 | Ratio Peptide:Unstimulated, protein tyrosine phosphatase, receptor type, E (AA464542): 0.23 | Ratio Peptide:Unstimulated, protein tyrosine phosphatase, receptor type, N polypeptide 2 (AA464590): 0.02 | Ratio Peptide:Unstimulated, protein tyrosine phosphatase, receptor-type, Z polypeptide 1 (AA476461): 0.63 | Ratio Peptide:Unstimulated, intercellular adhesion molecule 3 (AA479188): 0.12 | Ratio Peptide:Unstimulated, protein tyrosine phosphatase, receptor type, C-associated protein (AA481547): 5.1 | Ratio Peptide:Unstimulated, IL-18 receptor 1 (AA482489): 0.50 | Ratio Peptide:Unstimulated, vitamin D R (AA485226): 2.5 | Ratio Peptide:Unstimulated, integrin, beta 4 (AA485668): 0.8 | Ratio Peptide:Unstimulated, IL-10 R beta (AA486393, listed as ID 2): 2.5 and 2.51 | Ratio Peptide:Unstimulated, calcium and integrin binding protein (AA487575): 2.8 | Ratio Peptide:Unstimulated, TRAF and TNF receptor-associated protein (AA488650): 0.75 | Ratio Peptide:Unstimulated, cytokine-inducible kinase (AA489234): 0.41 | Ratio Peptide:Unstimulated, small inducible cytokine subfamily A (Cys—Cys), member 18 (AA495985): 0.32 | Ratio Peptide:Unstimulated, programmed cell death 8 (apoptosis-inducing factor) (AA496348): 1.07 | Ratio Peptide:Unstimulated, melanoma adhesion molecule (AA497002): 7.9 | Ratio Peptide:Unstimulated, TNF receptor-associated factor 3 (AA504259): 0.15 | Ratio Peptide:Unstimulated, apoptosis-related protein PNAS-1 (AA521316): 2.2 | Ratio Peptide:Unstimulated, complement component receptor 2 (AA521362): 26 | Ratio Peptide:Unstimulated, laminin R 1 (67 kD, ribosomal protein SA) (AA629897): 0.4 | Ratio Peptide:Unstimulated, protein tyrosine phosphatase, receptor type, U (AA644448): 6.1 | Ratio Peptide:Unstimulated, integrin, beta 3 (AA666269): 2.6 | Ratio Peptide:Unstimulated, regulator of G-protein signaling 5 (AA668470): 0.27 | Ratio Peptide:Unstimulated, T cell R delta locus (AA670107): 2.7 | Ratio Peptide:Unstimulated, small inducible cytokine A3 (homologous to mouse Mip-1a) (AA677522): 1.79 | Ratio Peptide:Unstimulated, protein tyrosine phosphatase, non-receptor type 13 (AA679180): 1.7 | Ratio Peptide:Unstimulated, protein tyrosine phosphatase, non-receptor type 3 (AA682684): 1.0 | Ratio Peptide:Unstimulated, v-SNARE R (AA704511): 11 | Ratio Peptide:Unstimulated, adenosine A3 R (AA863086): 2.0 | Ratio Peptide:Unstimulated, integrin, alpha 9 (AA865557): 0.86 | Ratio Peptide:Unstimulated, small inducible cytokine subfamily B (Cys-X-Cys), member 10 (AA878880): 0.50 | Ratio Peptide:Unstimulated, interleukin enhancer binding factor 2 (AA894687): 1.3 | Ratio Peptide:Unstimulated, IL-2 receptor, alpha (AA903183): 0.41 | Ratio Peptide:Unstimulated, small inducible cytokine subfamily A (Cys—Cys), member 23 (AA916836): 0.38 | Ratio Peptide:Unstimulated, CD2 (AA927710, listed as ID 2): 2.6 and 2.62 | Ratio Peptide:Unstimulated, prostaglandin E receptor 1 (subtype EP1) (AA972293): 7.2 | Ratio Peptide:Unstimulated, IL-12 receptor, beta 2 (AA977194): 0.67 | Ratio Peptide:Unstimulated, protein tyrosine phosphatase, non-receptor type 11 (AA995560): 2.9 | Ratio Peptide:Unstimulated, integrin beta 4 binding protein (AI017019): 1.7 | Ratio Peptide:Unstimulated, VIP R 2 (AI057229): 3.1 | Ratio Peptide:Unstimulated, orphan seven-transmembrane receptor, chemokine related (AI131555): 1.06 | Ratio Peptide:Unstimulated, IL-1 R antagonist homolog 1 (AI167887, listed as ID 2): 3086 and 3085.96 | Ratio Peptide:Unstimulated, MAP kinase 8 interacting protein 2 (AI202738): 0.16 | Ratio Peptide:Unstimulated, disintegrin and metalloproteinase domain 18 (AI205675): 0.40 | Ratio Peptide:Unstimulated, regulator of G-protein signaling 20 (AI264190): 48
